No end group written: not given here.
Key:
PAR1 receptor = molecular target: T1, PAR1 receptor (Homo sapiens, UniProt P25116); assay: Microfluidics-RWG biosensor DMR assay of A549 cells with PAR1 agonists; format: cell-based; details: for EC100: DMR; for Reversibility of the triggered cellular response: agonist removed after 30 min; for Response of pre-treated cells to second stimulation with 10 unit/ml thrombin: first exposure 30 min (SFLLR-amide 10 μM or thrombin 5 unit/ml), HBSS ~2 hours, then thrombin, FIG. 10; for P-DMR signal maximal amplitude (shift in resonant wavelength): thrombin 5 unit/ml, SFLLR-amide 10 μM, constant flow 1 microliter per min, FIG. 9
T1 construct: triggered an almost indistinguishable DMR signal in A549 cells; host or cells: A549 (human lung carcinoma), not starved
T1 sequence (P25116 22-425): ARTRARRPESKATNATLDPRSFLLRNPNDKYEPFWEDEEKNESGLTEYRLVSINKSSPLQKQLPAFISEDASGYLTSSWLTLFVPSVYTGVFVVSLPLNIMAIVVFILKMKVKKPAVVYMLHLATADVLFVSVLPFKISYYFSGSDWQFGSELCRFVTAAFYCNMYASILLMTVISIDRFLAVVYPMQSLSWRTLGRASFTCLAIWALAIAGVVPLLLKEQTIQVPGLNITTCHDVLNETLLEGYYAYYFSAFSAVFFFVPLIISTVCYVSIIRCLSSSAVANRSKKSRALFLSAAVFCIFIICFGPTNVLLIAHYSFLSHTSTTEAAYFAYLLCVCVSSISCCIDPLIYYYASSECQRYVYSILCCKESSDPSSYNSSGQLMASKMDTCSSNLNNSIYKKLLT
Experimental: (§1) Cells were typically grown using ˜1 to 2×10^4 cells per well at passage 3 to 15 suspended in 50 μl of the corresponding culture medium in the biosensor microplate, and were cultured at 37° C. under air/5% CO2 for ˜1 day. Except for A431 which was subject to ˜20 hr starvation through continuously culture in the serum-free DMEM, the A459 cells were directly assayed without starvation. The confluency for all cells at the time of assays was ˜95% to 100%. For cell culture in the microfluidics-biosensor chamber systems, ˜4×10^4 cells suspended in 10 μl the medium containing 10% FBS were injected into the chamber, and were cultured at 37° C. under air/5% CO2 until ˜95% confluency was reached (˜1 day). To prevent drying during the culture, the biosensor device was maintained within a petri dish with a cover, and extra cell medium within the dish.
(§2) Label-free biosensor cell assays: Corning RWG (resonant waveguide grating) imaging system was used for label-free biosensor cell assays. The imaging system, based on swept wavelength interrogation, is capable of high resolution imaging, with a spatial resolution of 6 micron in the direction perpendicular to the propagation path of the coupled light, a resolution of about 150 or about 6 microns in the direction parallel to the propagation path of the coupled light. The cellular responses across the whole sensor were recorded in real time at each pixel (6 microns×6 microns). The cellular responses at defined locations or areas of the biosensor surface were averaged to generate responses of a population of cells within the detection area(s).
The A431 cells reached high confluency before assays, and were subject to starvation for overnight with serum free medium. For A549 cells, cells were grown to high confluency and used for assays without starvation. Before assays, the cell medium was replaced with 1× Hanks' balanced salt solution (HBSS) having 20 mM Hepes buffer, and incubated within the imaging system for about 1 hour. The chamber was filled with 6.6 micro-liters buffered solution. The HBSS buffer solution was initially introduced into the chamber from the inlet and flowed through the biosensor with a low flow rate (typically 1 μl/min or 1 microliter/min) using a controlled pump until a steady baseline was reached. Then, a first solution, typically a solution containing a receptor agonist or a compound dissolved in the HBSS buffer, was introduced by switching the valve, and flowed through the biosensor for a period of time (e.g., 1 min, or 5 min, or 30 min). Subsequently, the HBSS buffer solution was reintroduced and flowed through the biosensor to replace the first solution. After certain time period, a second solution, typically a solution containing a receptor agonist or a compound, either different or the same as the first solution, was introduced and flowed through the biosensor continuously to trigger a cellular response. The flow rate was typically relatively low (˜0.5 μ/min to 5 μl/min), such that no mechanical sensitive cellular responses were triggered, and the cellular responses observed were largely due to the chemical(s) in the solution. Different combinations of these steps can be applied, depending on the purpose of the assays. The cellular responses throughout the assays were recorded using the high resolution imaging system. Depending on the biosensor insert used, the biosensor has a dimension of 3 mm×3 mm or 2 mm×2 mm. The chamber dimension is a length of about 9 mm from the inlet to the outlet, a width of 5 mm, and a height of 100 microns from the sensor surface to the bottom surface of the chamber. The total volume of solution required to fill the chamber is about 6 micro-liters.
For biosensor cellular assays, a baseline was established first. All studies were carried out at controlled temperature (22° C.) and with three replicates for each measurement, unless specifically mentioned. […]

[1] = molecular target: T2, β2-adrenergic receptor (β2AR) (Homo sapiens, UniProt P07550); assay: Buffer swapping RWG biosensor DMR assay (microplate) for long-acting agonism; format: cell-based
T2 construct: 2 nM epinephrine-induced DMR signal of quiescent A431 cells; host or cells: A431 (human epidermoid carcinoma), serum-starved (quiescent)
Experimental: Cells were typically grown using ˜1 to 2×10^4 cells per well at passage 3 to 15 suspended in 50 μl of the corresponding culture medium in the biosensor microplate, and were cultured at 37° C. under air/5% CO2 for ˜1 day. […] The confluency for all cells at the time of assays was ˜95% to 100%.

quiescent A431 cells = assay: Microfluidics-RWG biosensor DMR assay under pulse or sustained stimulation; format: cell-based, human; details: FIG. 8; for DMR signal under pulse stimulation compared with sustained epinephrine response: 2 min pulse, 2 nM epinephrine, 100 nM salbutamol, flow 1 microliter/min
Experimental: as §1, §2
The A431 cells reached high confluency before assays, and were subject to starvation for overnight with serum free medium. For A549 cells, cells were grown to high confluency and used for assays without starvation. Before assays, the cell medium was replaced with 1× Hanks' balanced salt solution (HBSS) having 20 mM Hepes buffer, and incubated within the imaging system for about 1 hour. […] The cellular responses throughout the assays were recorded using the high resolution imaging system. […]

[2] = quiescent A431 cells, pulse about 60 sec, 100 nM norepinephrine, 100 nM salbutamol, 100 nM salmeterol, FIG. 7b

T2 sequence (P07550 whole entry): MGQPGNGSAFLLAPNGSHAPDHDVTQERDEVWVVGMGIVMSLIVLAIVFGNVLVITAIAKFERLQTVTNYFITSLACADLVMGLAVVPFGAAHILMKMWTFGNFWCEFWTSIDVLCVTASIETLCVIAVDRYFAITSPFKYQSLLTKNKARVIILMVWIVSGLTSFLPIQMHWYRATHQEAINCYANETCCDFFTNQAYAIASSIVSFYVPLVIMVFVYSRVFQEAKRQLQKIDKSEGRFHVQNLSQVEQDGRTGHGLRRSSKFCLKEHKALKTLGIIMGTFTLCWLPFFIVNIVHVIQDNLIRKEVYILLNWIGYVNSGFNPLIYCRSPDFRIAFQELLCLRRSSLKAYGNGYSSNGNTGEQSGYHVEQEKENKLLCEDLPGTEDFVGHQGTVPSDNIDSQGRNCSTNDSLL

Compound	Effect of pulse pre-treatment on the 2 nM epinephrine-induced DMR signal [1, 2]	DMR signal under pulse stimulation compared with sustained epinephrine response (quiescent A431 cells)	EC100 (PAR1 receptor; A549 cells)	Reversibility of the triggered cellular response (PAR1 receptor; A549 cells)	Response of pre-treated cells to second stimulation with 10 unit/ml thrombin (PAR1 receptor; A549 cells)	P-DMR signal maximal amplitude (shift in resonant wavelength) (PAR1 receptor; A549 cells) [picometers]	further results
C[C@@H]1C[C@@H]([C@H](O)CC2CC(=O)NC(=O)C2)C(=O)[C@@H](C)C1 [cycloheximide]							Effect on the second thrombin response of thrombin-treated A549 cells (PAR1 receptor; 10 μM cycloheximide in every solution, data not shown): largely eliminated
CNC[C@H](O)c1ccc(O)c(O)c1 [epinephrine]	little impact	much smaller response					Response to second stimulation with 2 nM epinephrine after sustained pre-treatment ([1]; A431 cells pre-treated with 2 nM epinephrine under sustained stimulation, data not shown): completely desensitized; Long-acting or short-acting agonism at the β2AR ([1]; concluded from pulse stimulation through buffer swapping, quiescent A431 cells): short-acting agonist; Effect of pulse pre-treatment on the 2 nM epinephrine-induced DMR signal ([1]; quiescent A431 cells, pulse about 150 sec, 0.5 nM salmeterol, 1 nM CGP12177, 0.1 nM formeterol, FIG. 7a): did not cause the de-sensitization; DMR signal under sustained stimulation at slow flow rate (quiescent A431 cells; 2 nM epinephrine flowed throughout the assay, 1 microliter/min): comparable to that obtained using microplate-based sustained response
NC[C@H](O)c1ccc(O)c(O)c1 [norepinephrine]	little impact						
CC(C)(C)NCC(O)c1ccc(O)c(CO)c1 (stereo not shown) [salbutamol]		much smaller response					
SFLLR-amide (SFLLR-NH2; UniProt P25116 42-46, looked up, fragment)			10 µM	largely reversible	still able to respond to the second stimulation with thrombin with slightly smaller amplitude	~400	Plateau level of DMR signal above the baseline after switching back to HBSS (PAR1 receptor; A549 cells, 10 μM agonist replaced with HBSS 30 min after stimulation, FIG. 9a): about 120 picometers
thrombin			5 unit/ml	largely irreversible	only gave rise to a little response	~400	DMR signal after switching back to HBSS (PAR1 receptor; A549 cells, 5 unit/ml agonist replaced with HBSS 30 min after stimulation, FIG. 9b): still maintained elevated signal

— patent US20100129856A1, “Methods and Devices for Cell Signaling Under Pulse Stimulation” (priority 2008, published 2010)
